Experimental data from patent publication US20240190883A1, “KRAS PROTEIN DEGRADERS, PHARMACEUTICAL COMPOSITIONS THEREOF, AND THEIR THERAPEUTIC APPLICATIONS” (BioTheryX, Inc., priority 2021, published 2024).

Assays:
Format in all cases: cell-based
[1] = molecular target: T1, KRAS protein (Homo sapiens, UniProt P01116, G12D); assay: HIBIT degradation assay, AsPC-1 cells; details: 24 h, HiBiT signal normalized to CTG signal; for Effect on KRAS Protein Degradation, AsPC-1, 3 μM: compound at 3 μM; for Effect on KRAS Protein Degradation, AsPC-1, 5 μM: compound at 5 μM
T1 construct: engineered to express a Hobbit-tagged endogenous KRAS protein; endogenous in cells; host or cells: AsPC-1, endogenous KRAS locus engineered with a HiBiT tag
Experimental: (§1) HEK293, MIA PaCa-2, AsPc-1, SW620, and H647 cells were engineered to express a […] endogenous KRAS protein. The HEK293 and MIA PaCa-2 cells were cultured in DMEM media supplemented with 10% fetal bovine serum, streptomycin, and penicillin. The AsPc-1, SW620, and H647 were cultured in RPMI media supplemented with 10% fetal bovine serum, streptomycin, and penicillin. The cells were seeded in white walled 96-well plates at 20,000 cells/well in 100 μL culture media in duplicate plates. After incubated at 37° C. under 5% CO2 overnight, the cells were treated with DMSO (control) or a compound, followed by the addition of 100 μL culture media to each well. After the cells were incubated for 24 h at 37° C. under 5% C02, 150 μL media were removed from each well and 50 μL NANOGLO-LGBIT lytic reagent were added to each well, and 50 μL CELLTITER-GLO (CTG) reagent was added to the duplicate plate. Following a 10-minute incubation with shaking, luminescence was measured using a Perkin Elmer ENVISION multimode plate reader. HiBiT signal was normalized to CTG signal. The results are summarized in Table 3, where “A” represents a percentage degradation value of no less than 50%; “B” represents a percentage degradation value of less than 50% and no less than 25%; “C” represents a percentage degradation value of less than 25% and no less than 10%; and “D” represents a percentage degradation value of less than 10%.

[2] = test system: Molm-13 cells; assay: Cell viability assay, inhibition of Molm-13 cells; details: Homo sapiens; for inhibition at 1 µM: compound at 1 μM; for inhibition at 3 µM: compound at 3 μM
Experimental: [Worded in the source for another cell line; this cell line is reported under the same test.] (§2) H358, H23, SW48, and AsPC-1 cells were cultured in RPMI 1640 media supplemented with 10% fetal bovine serum, streptomycin, and penicillin. Lovo and SW480 cells were cultured in DMEM media supplemented with 10% fetal bovine serum, streptomycin, and penicillin. The cell lines were plated in their respective medium supplemented with 2.5% fetal bovine serum, streptomycin, and penicillin. All cell lines were plated in white walled 96-well plates at 2,000 cells/well or 384-well plates at 500 cells/well, except Lovo, which were plated at 4,000 or 1,000 cells/well, respectively. The cells were incubated in DMSO (control) or a compound for 3 days at 37° C. under 5% C02. A CELLTITER-GLO® reagent (100 μL) was then added to each well. After a 10 min incubation with shaking, luminescence was measured using an ENVISION® multimode plate reader. IC50 values are summarized in Table 1 and percentages of inhibition are summarized in Table 2, where compound T1 is 2-(4-(2-methyl-3,5-diphenylpyrazolo[1,5-a]pyrimidin-7-yl)piperazin-1-yl)ethan-1-ol.

[3] = molecular target: T2, KRAS protein (Homo sapiens, UniProt P01116, G12C); assay: HIBIT degradation assay, MIA PaCa-2 cells; details: 24 h, HiBiT signal normalized to CTG signal
T2 construct: engineered to express a Hobbit-tagged endogenous KRAS protein; endogenous in cells; host or cells: MIA PaCa-2, endogenous KRAS locus engineered with a HiBiT tag
Experimental: as §1

[4] = molecular target: T3, KRAS protein (Homo sapiens, UniProt P01116, G13D); assay: HIBIT degradation assay, H647 cells; details: 24 h, HiBiT signal normalized to CTG signal; for Effect on KRAS Protein Degradation, H647, 3 μM: compound at 3 μM; for Effect on KRAS Protein Degradation, H647, 5 μM: compound at 5 μM
T3 construct: engineered to express a Hobbit-tagged endogenous KRAS protein; endogenous in cells; host or cells: H647, endogenous KRAS locus engineered with a HiBiT tag
Experimental: as §1

[5] = molecular target: T4, KRAS protein (Homo sapiens, UniProt P01116); assay: HIBIT degradation assay, HEK293 cells; details: 24 h, HiBiT signal normalized to CTG signal; for Effect on KRAS Protein Degradation, HEK293, 3 μM: compound at 3 μM; for Effect on KRAS Protein Degradation, HEK293, 5 μM: compound at 5 μM
T4 construct: engineered to express a Hobbit-tagged endogenous KRAS protein; endogenous in cells; host or cells: HEK293, endogenous KRAS locus engineered with a HiBiT tag
Experimental: as §1

[6] = test system: SW48 (wt) cells; assay: Cell viability assay (CELLTITER-GLO), SW48 cells; details: Homo sapiens, 72 h, 3 days incubation, 2.5% fetal bovine serum, read-out: Inhibition of Cancerous Cells IC50 (μM) SW48 (wt)
Experimental: as §2

[7] = test system: H358 (G12C) cells; assay: Cell viability assay (CELLTITER-GLO), H358 cells; details: Homo sapiens, NCI-H358, 72 h, 3 days incubation, 2.5% fetal bovine serum, read-out: Inhibition of Cancerous Cells IC50 (μM) H358 (G12C)
Experimental: as §2

[8] = test system: Lovo (G13D) cells; assay: Cell viability assay (CELLTITER-GLO), Lovo cells; details: Homo sapiens, 72 h, 3 days incubation, 2.5% fetal bovine serum, read-out: Inhibition of Cancerous Cells IC50 (μM) Lovo (G13D)
Experimental: as §2

[9] = test system: H23 cells; assay: Cell viability assay (CELLTITER-GLO), H23 cells; details: Homo sapiens, NCI-H23, 72 h, 3 days incubation, 2.5% fetal bovine serum, read-out: Inhibition of Cancerous Cells IC50 (μM) H23
Experimental: as §2

[10] = test system: SW480 (G12V) cells; assay: Cell viability assay (CELLTITER-GLO), SW480 cells; details: Homo sapiens, 72 h, 3 days incubation, 2.5% fetal bovine serum, read-out: Inhibition of Cancerous Cells IC50 (μM) SW480 (G12V)
Experimental: as §2

T4 sequence (P01116 1-188 isoform P01116-2): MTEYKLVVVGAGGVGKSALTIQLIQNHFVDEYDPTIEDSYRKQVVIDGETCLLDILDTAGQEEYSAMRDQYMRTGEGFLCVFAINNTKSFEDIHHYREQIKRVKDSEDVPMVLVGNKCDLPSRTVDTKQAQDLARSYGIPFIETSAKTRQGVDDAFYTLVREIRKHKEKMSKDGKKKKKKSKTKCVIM
T3 sequence (P01116 1-185 isoform P01116-2 G13D limits assumed): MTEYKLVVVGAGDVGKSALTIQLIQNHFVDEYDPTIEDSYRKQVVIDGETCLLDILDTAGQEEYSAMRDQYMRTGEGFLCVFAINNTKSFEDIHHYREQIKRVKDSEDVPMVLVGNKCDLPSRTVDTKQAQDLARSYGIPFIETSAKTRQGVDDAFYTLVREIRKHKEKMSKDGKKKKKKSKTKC
T1 sequence (P01116 1-188 isoform P01116-2 G12D): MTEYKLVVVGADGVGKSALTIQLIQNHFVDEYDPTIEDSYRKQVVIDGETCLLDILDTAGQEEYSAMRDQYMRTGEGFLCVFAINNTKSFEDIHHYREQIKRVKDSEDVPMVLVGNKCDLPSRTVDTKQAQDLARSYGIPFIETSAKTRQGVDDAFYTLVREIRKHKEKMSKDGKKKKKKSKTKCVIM
T2 sequence (P01116 whole entry G12C): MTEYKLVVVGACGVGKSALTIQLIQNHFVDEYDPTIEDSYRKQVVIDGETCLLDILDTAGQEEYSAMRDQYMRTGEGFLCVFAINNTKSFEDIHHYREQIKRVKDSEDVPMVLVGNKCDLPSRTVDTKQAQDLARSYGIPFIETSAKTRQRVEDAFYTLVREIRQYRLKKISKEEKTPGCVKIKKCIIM

| Structure (SMILES) | IC50 [6] | IC50 [7] | IC50 [8] | IC50 [10] | Effect on KRAS Protein Degradation, AsPC-1, 3 μM [1] | Effect on KRAS Protein Degradation, AsPC-1, 5 μM [1] | inhibition at 1 µM [2] | inhibition at 3 µM [2] | Effect on KRAS Protein Degradation, MIA PaCa-2, 3 μM ([3]; compound at 3 μM) | Effect on KRAS Protein Degradation, MIA PaCa-2, 5 μM ([3]; compound at 5 μM) | Effect on KRAS Protein Degradation, H647, 3 μM [4] | Effect on KRAS Protein Degradation, H647, 5 μM [4] | Effect on KRAS Protein Degradation, HEK293, 3 μM [5] | Effect on KRAS Protein Degradation, HEK293, 5 μM [5] | inhibition at 10 µM ([2]; compound at 10 μM) | IC50 [9] |
| --- | --- | --- | --- | --- | --- | --- | --- | --- | --- | --- | --- | --- | --- | --- | --- | --- |
| Cc1nn2c(N3CCN(CCO)CC3)cc(-c3ccccc3)nc2c1-c1cccc(CCCN2CCN(C(=O)COc3cccc4c(C5CCC(=O)NC5=O)nn(C)c34)CC2)c1 (centres unmarked) [Compound D20, 3-(7-(2-(4-(3-(3-(7-(4-(2-Hydroxyethyl)piperazin-1-yl)-2-methyl-5-phenyl-pyrazolo[1,5-a]pyrimidin-3-yl)phenyl)propyl)piperazin-1-yl)-2-oxoethoxy)-1-methyl-1H-indazol-3-yl)piperidine-2,6-dione] | – | – | – | – | D (a percentage degradation value of less than 10%) | C (a percentage degradation value of less than 25% and no less than 10%) | 0% | 71% | C (a percentage degradation value of less than 25% and no less than 10%) | C (a percentage degradation value of less than 25% and no less than 10%) | – | – | – | – | – | – |
| Cc1nn2c(N3CCN(CCO)CC3)cc(-c3ccccc3)nc2c1-c1cccc(CCCCCCCN2CCN(C(=O)CNc3cccc4c(N5CCC(=O)NC5=O)nn(C)c34)CC2)c1 [Compound D18, 1-(7-((2-(4-(7-(3-(7-(4-(2-hydroxyethyl)piperazin-1-yl)-2-methyl-5-phenyl-pyrazolo[1,5-a]pyrimidin-3-yl)phenyl)heptyl)piperazin-1-yl)-2-oxoethyl)amino)-1-methyl-1H-indazol-3-yl)dihydropyrimidine-2,4(1H,3H)-dione] | – | – | – | – | B (a percentage degradation value of less than 50% and no less than 25%) | C (a percentage degradation value of less than 25% and no less than 10%) | 14% | 95% | – | – | D (a percentage degradation value of less than 10%) | C (a percentage degradation value of less than 25% and no less than 10%) | – | – | – | – |
| Cc1nn2c(N3CCN(CCO)CC3)cc(-c3ccccc3)nc2c1-c1cccc(CCCCCN2CCN(C(=O)CNc3cccc4c(N5CCC(=O)NC5=O)nn(C)c34)CC2)c1 [Compound D17, 1-(7-((2-(4-(5-(3-(7-(4-(2-hydroxyethyl)piperazin-1-yl)-2-methyl-5-phenyl-pyrazolo[1,5-a]pyrimidin-3-yl)phenyl)pentyl)piperazin-1-yl)-2-oxoethyl)amino)-1-methyl-1H-indazol-3-yl)dihydropyrimidine-2,4(1H,3H)-dione] | – | – | – | – | B (a percentage degradation value of less than 50% and no less than 25%) | C (a percentage degradation value of less than 25% and no less than 10%) | 34% | 99% | – | – | C (a percentage degradation value of less than 25% and no less than 10%) | – | C (a percentage degradation value of less than 25% and no less than 10%) | C (a percentage degradation value of less than 25% and no less than 10%) | – | – |
| Cc1nn2c(N3CCN(CCO)CC3)cc(-c3ccccc3)nc2c1-c1cccc(CCCN2CCN(C(=O)CNc3cccc4c(N5CCC(=O)NC5=O)nn(C)c34)CC2)c1 [Compound D16, 1-(7-((2-(4-(3-(3-(7-(4-(2-Hydroxyethyl)piperazin-1-yl)-2-methyl-5-phenyl-pyrazolo[1,5-a]pyrimidin-3-yl)phenyl)propyl)piperazin-1-yl)-2-oxoethyl)amino)-1-methyl-1H-indazol-3-yl)dihydropyrimidine-2,4(1H,3H)-dione] | – | – | – | – | C (a percentage degradation value of less than 25% and no less than 10%) | D (a percentage degradation value of less than 10%) | – | – | – | – | – | – | C (a percentage degradation value of less than 25% and no less than 10%) | C (a percentage degradation value of less than 25% and no less than 10%) | – | – |
| Cc1nn2c(N3CCN(CCO)CC3)cc(-c3cccc(CCCCCCCN4CCC(Nc5cccc(NC6CCC(=O)NC6=O)c5)CC4)c3)nc2c1-c1ccccc1 (centres unmarked) [Compound A1, 3-((3-((1-(7-(3-(7-(4-(2-Hydroxyethyl)piperazin-1-yl)-2-methyl-3-phenyl-pyrazolo[1,5-a]pyrimidin-5-yl)phenyl)heptyl)piperidin-4-yl)amino)phenyl)amino)piperidine-2,6-dione] | 0.54 µM | 0.9 µM | 0.43 µM | 0.4 µM | – | – | – | – | – | – | – | – | – | – | – | 0.81 µM |

Now from value to molecule, other results behind:

| IC50 [6] | IC50 [7] | IC50 [8] | IC50 [10] | Structure (SMILES) | Effect on KRAS Protein Degradation, AsPC-1, 3 μM [1] | Effect on KRAS Protein Degradation, AsPC-1, 5 μM [1] | inhibition at 1 µM [2] | inhibition at 3 µM [2] | Effect on KRAS Protein Degradation, MIA PaCa-2, 3 μM ([3]; compound at 3 μM) | Effect on KRAS Protein Degradation, MIA PaCa-2, 5 μM ([3]; compound at 5 μM) | Effect on KRAS Protein Degradation, H647, 3 μM [4] | Effect on KRAS Protein Degradation, H647, 5 μM [4] | Effect on KRAS Protein Degradation, HEK293, 3 μM [5] | Effect on KRAS Protein Degradation, HEK293, 5 μM [5] | inhibition at 10 µM ([2]; compound at 10 μM) | IC50 [9] |
| --- | --- | --- | --- | --- | --- | --- | --- | --- | --- | --- | --- | --- | --- | --- | --- | --- |
| 1.9 µM | 2.4 µM | 1.3 µM | 0.7 µM | Cc1nn2c(N3CCN(CCO)CC3)cc(-c3ccccc3)nc2c1-c1ccccc1 [Compound T1, 2-(4-(2-methyl-3,5-diphenylpyrazolo[1,5-a]pyrimidin-7-yl)piperazin-1-yl)ethan-1-ol, reference compound] | – | – | 0% | – | – | – | – | – | – | – | 99% | 2.5 µM |
| 0.5 µM | 0.49 µM | 0.27 µM | 0.42 µM | Cc1nn2c(N3CCN(CCO)CC3)cc(-c3cccc(CCCCCN4CCN(C(=O)CNc5cccc6c(C7CCC(=O)NC7=O)nn(C)c56)CC4)c3)nc2c1-c1ccccc1 (centres unmarked) [Compound D5, 3-(7-((2-(4-(5-(3-(7-(4-(2-hydroxyethyl)piperazin-1-yl)-2-methyl-3-phenyl-pyrazolo[1,5-a]pyrimidin-5-yl)phenyl)pentyl)piperazin-1-yl)-2-oxoethyl)amino)-1-methyl-1H-indazol-3-yl)piperidine-2,6-dione] | – | – | – | – | – | – | – | – | – | – | – | 0.95 µM |
| 0.45 µM | 0.52 µM | 0.31 µM | 0.42 µM | Cc1nn2c(N3CCN(CCO)CC3)cc(-c3cccc(CCCCCN4CCN(C(=O)CNc5cccc(C6CCC(=O)NC6=O)c5)CC4)c3)nc2c1-c1ccccc1 (centres unmarked) [Compound B5, 3-(3-((2-(4-(5-(3-(7-(4-(2-hydroxyethyl)piperazin-1-yl)-2-methyl-3-phenyl-pyrazolo[1,5-a]pyrimidin-5-yl)phenyl)pentyl)piperazin-1-yl)-2-oxoethyl)amino)phenyl)-piperidine-2,6-dione] | – | – | – | – | – | – | D (a percentage degradation value of less than 10%) | A (a percentage degradation value of no less than 50%) | – | – | – | 0.83 µM |
